# Source: patent US20090275538A1, “ARYLMETHYLIDENE HETEROCYCLES AS NOVEL ANALGESICS” (priority 2008, published 2009)
# System: neuropathic rats (chronic constriction injury of the left sciatic nerve)
# Assay: Analgesic effect in chronic constriction injury (Bennett) model of neuropathic pain, Von Frey 50% withdrawal threshold
# Assay type: in vivo, Sprague-Dawley rats
# Details: rats rendered neuropathic via the Bennett Model; intrathecal administration in Captisol; mean ± SEM; p<0.05 vs vehicle control
# Procedure: Determination of Analgesic Effect in an Experimental Model of Neuropathic Pain
# Adult, male Sprague-Dawley rats were obtained from Charles River Laboratories (Wilmington, Mass.) and housed under standard conditions at the Institut Armand-Frappier (Laval, QC). Food and water were provided to experimental animals ad libitum, and rats weighed 175-200 grams at the time of assessment.
# Compounds were prepared for intrathecal administration by dissolving them in a vehicle of Captisol® (CyDex, Lenexa, Kans.); total volume of solution administered to rats was 20 μL.
# Neuropathic pain was induced in rats via chronic constriction injury (CCl) of the left sciatic nerve in accordance with the procedure described by Bennett & Xie (Pain, 1988). Briefly, under ketamine/xylazine anaesthesia, the sciatic nerve was exposed by dissection at the level of mid-thigh, and four loose ligatures (USP 4/0, Braun Melsungen, FRG) were implanted around the nerve—with due attention not to interrupt the epineural circulation. The incision was closed-up using simple suturing, and the rats allowed to recover.
# After approximately two weeks, a stable allodynia to blunt mechanical stimuli was identified in the hind paw ipsilateral to the CCl, manifested as a reduction of 50% withdrawal threshold, and identified using the Von Frey technique, as described by Chaplan et al. (Journal of Neuroscience Methods, 1994). Rats were considered to be fully neuropathic upon displaying a 50% withdrawal threshold of <3.5 grams consistently over the course of 72 hours.
# Under brief isoflurane […], compounds were administered to neuropathic rats via acute local delivery in the intrathecal space surrounding the lumbar enlargement of the spinal cord.
row,Structure (SMILES),Peak 50% Withdrawal Threshold [g]
1,CCN(CC)C1CCN(C2=NC(=O)/C(=C\c3cc(F)ccc3OC(=O)N(C)C)S2)C1 (stereo not shown),11.84 ± 1.58
2,CN(C)[C@@H]1CCN(C2=NC/C(=C/c3cc(F)ccc3O)S2)C1.Cl,6.44 ± 1.33
3,CN(C)[C@H]1CCN(C2=NC(=O)/C(=C/c3cc(F)ccc3O)S2)C1.CS(=O)(=O)O,9.72 ± 2.04
4,CN(C)[C@@H]1CCN(C2=NC(=O)/C(=C/c3ccc(F)cc3O)S2)C1,5.6 ± 1.94
5,CN(C)[C@H]1CCN(C2=NC(=O)/C(=C/c3ccc(F)cc3O)S2)C1.CS(=O)(=O)O,7.3 ± 1.37
6,O=C1N=C(N2CCCCC2)S/C1=C\c1ccccc1O,6.74 ± 2.13
7,O=C1N=C(N2CCN(CCO)CC2)S/C1=C\c1ccc(F)cc1O,8.23 ± 2.40
8,CS(=O)(=O)O.O=C1N=C(N2CCN(CCO)CC2)S/C1=C\c1cc(F)ccc1O,6.40 ± 2.45
9,"Cl.O=C1N=C(N2CCCCN2)S/C1=C/c1cc(F)ccc1OC(=O)N1CCCC1 [2-{[(5E)-2-(1,2-diazinan-1-yl)-4-oxo-4,5-dihydro-1,3-thiazol-5-ylidene]methyl}-4-fluorophenylpyrrolidine-1-carboxylate hydrochloride]",8.18 ± 1.98
10,"CN(C)C(=O)Oc1cc(F)ccc1/C=C1/SC(N2CCCCN2)=NC1=O.Cl [2-{[(5E)-2-(1,2-diazinan-1-yl)-4-oxo-4,5-dihydro-1,3-thiazol-5-ylidene]methyl}-5-fluorophenyl N,N-dimethylcarbamate hydrochloride]",6.18 ± 1.77
11,"Cl.O=C1N=C(N2CCCCN2)S/C1=C/c1ccc(F)cc1OC(=O)N1CCCC1 [2-{[(5E)-2-(1,2-diazinan-1-yl)-4-oxo-4,5-dihydro-1,3-thiazol-5-ylidene]methyl}-5-fluorophenyl pyrrolidine-1-carboxylate hydrochloride]",7.42 ± 1.21
12,"O=C1N=C(N2CCCCN2)S/C1=C\c1ccc(F)cc1O [(5Z)-2-(1,2-diazinan-1-yl)-5-[(4-fluoro-2-hydroxyphenyl)methylidene]-4,5-dihydro-1,3-thiazol-4-one]",7.37 ± 2.02
13,"O=C1N=C(N2CCCCN2)S/C1=C\c1cc(F)ccc1O [(5Z)-2-(1,2-diazinan-1-yl)-5-[(5-fluoro-2-hydroxyphenyl)methylidene]-4,5-dihydro-1,3-thiazol-4-one]",9.03 ± 2.00
